Data published in ChEMBL document CHEMBL5518204, “Discovery and Proof of Concept of Potent Dual Polθ/PARP Inhibitors for Efficient Treatment of Homologous Recombination-Deficient Tumors” (J Med Chem, 2024).
pIC50: −log10 of the molar value.

Key:
[1] = biological target: T1, Protein mono-ADP-ribosyltransferase TIPARP (Homo sapiens, UniProt Q7Z3E1); assay: Inhibition of PARP7 (unknown origin)
T1 sequence (Q7Z3E1 whole entry): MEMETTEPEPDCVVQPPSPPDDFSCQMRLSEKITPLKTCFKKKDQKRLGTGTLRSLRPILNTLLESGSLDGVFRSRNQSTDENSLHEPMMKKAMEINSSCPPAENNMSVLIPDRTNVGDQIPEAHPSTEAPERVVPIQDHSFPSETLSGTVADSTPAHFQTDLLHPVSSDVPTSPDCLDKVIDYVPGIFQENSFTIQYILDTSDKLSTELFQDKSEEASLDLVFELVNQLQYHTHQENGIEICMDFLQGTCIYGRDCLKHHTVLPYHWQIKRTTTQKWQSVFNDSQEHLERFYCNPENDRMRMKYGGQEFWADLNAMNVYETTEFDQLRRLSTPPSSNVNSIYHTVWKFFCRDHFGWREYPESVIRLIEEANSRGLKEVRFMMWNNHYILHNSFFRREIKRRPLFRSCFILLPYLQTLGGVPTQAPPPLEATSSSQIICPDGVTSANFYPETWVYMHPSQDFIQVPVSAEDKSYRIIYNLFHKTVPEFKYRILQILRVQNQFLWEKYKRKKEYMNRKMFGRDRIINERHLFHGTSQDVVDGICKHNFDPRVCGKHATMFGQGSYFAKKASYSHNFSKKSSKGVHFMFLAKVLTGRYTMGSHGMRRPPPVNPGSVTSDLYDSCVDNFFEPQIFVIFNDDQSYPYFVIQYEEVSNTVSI

[2] = Cmax in Sprague-Dawley rat at 1 mg/kg, iv by LC-MS/MS analysis; format: ADME, organism-based; conditions: in vivo

COc1ccc(Cl)cc1-c1cc(C)ncc1C(=O)Nc1nnc(OCC2CCN(C(=O)c3cc(Cc4n[nH]c(=O)c5ccccc45)ccc3F)CC2)s1
pIC50 [1]: 6.71 | Cmax [2]: 1950 ng/mL
